Tests used:
[1] = tested on: P. falciparum (FCR3); assay: [3H]-hypoxanthine incorporation, parasite growth inhibition (chloroquine-resistant strain FCR3); assay type: cell-based, Plasmodium falciparum
Method: P. falciparum (clone D6, chloroquine-sensitive; strain FCR3, chloroquine-resistant; and clone W2, multidrug-resistant) was grown in vitro by the method of Trager and Jensen, (1976) Science 193, 673-675. • Figure 1 illustrates the effect of desipramine on the inhibition of parasite growth. […] Isobologram analysis was carried out according to the method of Martin, et al., (1987) Science 235, 899-901 and Berenbaum, (1978) Journal of Infectious Diseases 137, 122-130. […] The X-axis is the IC₅₀ (concentration of drug which inhibits hypoxanthine incorporation by 50%) of chloroquine in the absence or presence of desipramine while the Y-axis is the IC₅₀ for desipramine in the absence or presence of chloroquine. […] Dose-response curves and IC₅₀'s for chloroquine were determined either in the absence of desipramine or in the presence of a fixed concentration of desipramine ranging from 50 ng desipramine/ml up to 500 ng desipramine/ml. […] Clinically achievable plasma concentrations of desipramine in depressed patients are in the range of 50 - 200 ng/ml. Desipramine (500 ng/ml) lowered the IC₅₀ and IC₉₀ for chloroquine by 10-fold. An IC₅₀ for a chloroquine-sensitive P. falciparum strain would be approximately 5 ng/ml. Therefore in the presence of clinically relevant concentrations of desipramine, the chloroquine-resistant P. falciparum strain is as sensitive to chloroquine as is the "sensitive" strain. • Figure 4 illustrates the ability of desipramine to enhance the potency of chloroquine against P. falciparum (W2). The experiment is identical to that of Figure 3 but a different strain of P. falciparum was used. […] The IC₅₀ and IC₉₀ for chloroquine are lowered by a factor of approximately 10. […] The anti-psycotic, chloropromazine, was substituted for desipramine in an experiment similar to that in Figure 2. • Figure 7. […] Uptake of [3H]-chloroquine was followed in clone D6 (chloroquine susceptible, ·) and in clone W2 (multidrug-resistant, o) in the absence or presence of desipramine.

[2] = tested on: chloroquine-sensitive P. falciparum strain; conditions: stated as 'would be approximately'; cited from earlier work
[3] = depressed patients; cited from earlier work
[4] = tested on: chloroquine-susceptible clone D6 of P. falciparum; assay: [3H]-hypoxanthine incorporation, parasite growth inhibition (chloroquine-susceptible clone D6); assay type: cell-based, Plasmodium falciparum; conditions: Figure 5, experiment similar to Figures 3 and 4
Method: (§1) P. falciparum (clone D6, chloroquine-sensitive; strain FCR3, chloroquine-resistant; and clone W2, multidrug-resistant) was grown in vitro by the method of Trager and Jensen, (1976) Science 193, 673-675. • Figure 1 illustrates the effect of desipramine on the inhibition of parasite growth. […] Isobologram analysis was carried out according to the method of Martin, et al., (1987) Science 235, 899-901 and Berenbaum, (1978) Journal of Infectious Diseases 137, 122-130. […] The X-axis is the IC₅₀ (concentration of drug which inhibits hypoxanthine incorporation by 50%) of chloroquine in the absence or presence of desipramine while the Y-axis is the IC₅₀ for desipramine in the absence or presence of chloroquine. […] Dose-response curves and IC₅₀'s for chloroquine were determined either in the absence of desipramine or in the presence of a fixed concentration of desipramine ranging from 50 ng desipramine/ml up to 500 ng desipramine/ml. […] Clinically achievable plasma concentrations of desipramine in depressed patients are in the range of 50 - 200 ng/ml. Desipramine (500 ng/ml) lowered the IC₅₀ and IC₉₀ for chloroquine by 10-fold. An IC₅₀ for a chloroquine-sensitive P. falciparum strain would be approximately 5 ng/ml. […]

[5] = tested on: P. falciparum (W2); assay type: cell-based, Plasmodium falciparum
Method: as §1

[6] = tested on: clone W2 (multidrug-resistant); assay: Uptake of [3H]-chloroquine by parasites (clone W2); assay type: cell-based, P. falciparum; conditions: Figure 7; drug-resistant parasites, presence vs absence of desipramine
Method: as §1

[7] = Figure 3, desipramine 500 ng/ml, FCR3

## CN(C)CCCN1c2ccccc2Sc2ccc(Cl)cc21 [chloropromazine]
[1]; Figure 6, experiment similar to Figure 2, combination with chloroquine
  synergism of chloropromazine and chloroquine (isobologram): synergism

## CCN(CC)CCCC(C)Nc1ccnc2cc(Cl)ccc12 (stereo not drawn) [chloroquine]
[2]
  IC50: approximately 5 ng/ml

## CNCCCN1c2ccccc2CCc2ccccc21 [desipramine, Desipramine]
[3]
  Clinically achievable plasma concentrations: 50 to 200 ng/mL
[4]
  change of the response to chloroquine: does not change the response
[5]; Figure 4, at the desipramine concentrations used, without chloroquine
  effects on P. falciparum when desipramine was added alone: only slight effects
[5]; W2 compared with FCR3
  sensitivity of the strain to desipramine: more sensitive
[1]; [7]
  lowering of the IC50 for chloroquine: 10 fold
  lowering of the IC90 for chloroquine: 10 fold
[6]
  accumulation of chloroquine by parasites: increases the accumulation of chloroquine
